Data from patent US4368203A, “Antibiotics and derivatives thereof having β-lactamase inhibitory activity and production thereof” (priority 1977, dated 1983).
≈ marks a conversion by molar mass, not a printed value. Entries after “also recorded” stand apart in the source; their conditions may differ. Read-outs that look alike come from different tables or passages of the source.

How the values were obtained:
[1] = Solubility; format: physicochemical; settings: 5 mg in 0.1 ml of solvent, shaking, 20° C.; for Solubility in organic solvents: solvents named in the value
Excerpt: The results are as shown as below:
The results are as shown below:

[2] = test system: Klebsiella pneumoniae K-2; experiment: MIC, broth dilution method; settings: Klebsiella pneumoniae, K2, 20 h, read-out: Minimum inhibitory concentration
[3] = test system: Gram-positive and Gram-negative bacteria; experiment: Antibiotic spectra (summary in words); format: cell-based; settings: for Antibiotic activity against Gram-negative bacteria resistant to β-lactam antibiotics: genera Citrobacter, Proteus, Klebsiella, Enterobacter, Serratia as named at the place; for Antibiotic activity against Gram-positive bacteria: genera Staphylococcus, Diplococcus, Streptococcus, Bacillus as named at the place
[4] = test system: Staphylococcus aureus Smith; experiment: In vivo activity in intraperitoneally infected mice; design: species or system DDY male mice; settings: for ED50: Staphylococcus aureus, sc, mice infected i.p. with 5×10^5 cells/mouse, subcutaneous injection just after infection, read-out: 50% curative dose (CD50); for Therapeutic effect in infected mice: mice infected with pathogenic Gram-positive bacteria
Procedure: Soon after infection, an aqueous solution of the antibiotic PS-5 sodium salt preparation was subcutaneously injected.
Activity of the antibiotic PS-7 obtained above was determined using mice infected with Staphylococcus aureus Smith at 5×10^5 cells a mouse intraperitoneally. Sodium salt of the antibiotic PS-7 was administered to the mice subcutaneously immediately after the infection.
The tritylation product of antibiotic PS-6 was subcutaneously injected just after infection. The 50% curative dose on male DDY mice (SHIZUOKA) was 5.5 mg/kg.
The tritylation product of antibiotic PS-7 was subcutaneously injected just after infection. The 50% curative dose on make DDY mice (SHIZUOKA) was 4.5 mg/kg.

[5] = test system: Streptococcus pyogenes NY-5; experiment: MIC, broth dilution method; settings: Streptococcus pyogenes, NY5, 20 h, read-out: Minimum inhibitory concentration
[6] = Stability (general statements); format: physicochemical; settings: general statement
[7] = test system: Enterobacter cloacae E-16; experiment: MIC, broth dilution method; format: cell-based; settings: Enterobacter cloacae, E16, 20 h, lactamase producing organism, read-out: Minimum inhibitory concentration
Procedure: Sodium salt of the antibiotic PS-7 was dissolved and diluted with the BRAIN HEART INFUSION BROTH "Eiken" at a concentration between 5 μg/ml and 100 μg/ml. The solution was further diluted with the same medium to obtain a series of geometric concentrations. To the serial dilutions were added the seed cultures prepared by shaking culture of various test microorganisms shown in Tab. 5 in the BRAIN HEART INFUSION GROTH at 28° C. for 18 hours, the final cell count being about 1×10^5 /ml. […] The lowest concentration at which no cell growth was observed was the minimum inhibitory concentration of the antibiotic PS-7 on the test microorganism. […] The minimum inhibitory concentrations on test strains were determined in the same manner as mentioned above.

[8] = test system: Proteus vulgaris P-5; experiment: MIC, broth dilution method; settings: Proteus vulgaris, P5, 20 h, read-out: Minimum inhibitory concentration
[9] = Acute toxicity, intraperitoneal administration; format: in vivo, DDY male mice; settings: mice, 500 mg/kg
[10] = test system: Alcaligenes faecalis B-326; experiment: MIC, broth dilution method; format: cell-based; settings: Alcaligenes faecalis, B326, 20 h, read-out: Minimum inhibitory concentration
Procedure: (§1) Sodium salt of the antibiotic PS-7 was dissolved and diluted with the BRAIN HEART INFUSION BROTH "Eiken" at a concentration between 5 μg/ml and 100 μg/ml. The solution was further diluted with the same medium to obtain a series of geometric concentrations. To the serial dilutions were added the seed cultures prepared by shaking culture of various test microorganisms shown in Tab. 5 in the BRAIN HEART INFUSION GROTH at 28° C. for 18 hours, the final cell count being about 1×10^5 /ml. […] The lowest concentration at which no cell growth was observed was the minimum inhibitory concentration of the antibiotic PS-7 on the test microorganism. […] . The minimum inhibitory concentrations on test strains were determined in the same manner as mentioned above. […] For the comparison, the results on the known antibiotics Cephazolin and Cefoxitin are also given in the same table.

[11] = test system: Diplococcus pneumoniae Type III; experiment: MIC, broth dilution method; format: cell-based; settings: Streptococcus pneumoniae, 20 h, 10% of horse blood in the medium, read-out: Minimum inhibitory concentration
Procedure: as §1

[12] = test system: Staphylococcus aureus FDA 209P; experiment: MIC, broth dilution method; format: cell-based; settings: FDA209P, 20 h, final methanol not above 10%, read-out: Minimum inhibitory concentration
Procedure: as §1

[13] = test system: Citrobacter freundii E-9; experiment: MIC, broth dilution method; format: cell-based; settings: Citrobacter freundii, E9, 20 h, lactamase producing organism, read-out: Minimum inhibitory concentration
Procedure: as §1

[14] = test system: β-lactamase-producing, β-lactam-resistant bacteria; experiment: Increase of the antibiotic activity of other antibiotics (summary in words); format: cell-based; settings: β-lactamase-producing bacteria such as Proteus vulgaris, Serratia marcescens
Procedure: (§2) 10 ml of 2.5 folds diluted nutrient agar (pH 7.0) containing 50 μg/ml of penicillin G or cephaloridine was seeded with the β-lactamase producing and β-lactam-resistant microorganisms and poured in a 9 cm Petri dish to provide the bio-assay agar plate. […] A control assay plate was similarly prepared without penicillin G or cephaloridine. As reference antibiotics, 10,000 μg/ml of penicillin G or 20 μl of cephaloridine were disc-assayed under the same conditions.
(§3) Cepholoridine was added to a 2.5-times diluted nutrient agar, pH 7.0 and the medium was inoculated with a β-lactam-producing strain that produceds β-lactamase. Ten ml of the medium was spread and solidified in a petri dish of 9 cm in diameter to prepare an assay plate. […] Each 20 μl of the solution and its 2- and 4-times diluted solutions was soaked in a pulp disc of 8 mm in diameter. To the surface of the above nutrient agar was placed the pulp disc and the size of the growth inhibitory zone around the disc was examined after incubation at 35° C. for 18 hours. […] In addition, for the comparison, a similar experiment was also performed with a pulp disk soaked with 20 μl of 10,000 μg/ml Penicillin G or Cepholoridine solution in place of the antibiotic PS-7.

[15] = test system: Proteus vulgaris P-5; experiment: Potentiating and synergistic effect, pulp disc inhibition zone on agar plate; format: cell-based
Procedure: as §2, §3

[16] = test system: Serratia marcescens S-18; experiment: as above; format: cell-based
Procedure: (§4) 10 ml of 2.5 folds diluted nutrient agar (pH 7.0) containing 50 μg/ml of penicillin G or cephaloridine was seeded with the β-lactamase producing and β-lactam-resistant microorganisms and poured in a 9 cm Petri dish to provide the bio-assay agar plate. On this assay plate, 8 mm of pulp discs each containing 20 μl of antibiotic PS-6 solution at the concentration of 240 μg/ml were placed and incubated at 35° C. for 18 hours before reading the inhibition zones. A control assay plate was similarly prepared without penicillin G or cephaloridine. As reference antibiotics, 10,000 μg/ml of penicillin G or 20 μl of cephaloridine were disc-assayed under the same conditions.

[17] = test system: Citrobacter freundii E-9; experiment: as above; format: cell-based
Procedure: as §4

[18] = Table 6, agar containing 50 μg/ml of cephaloridine, disc 20 μl, PS-6 240 μg/ml, reference antibiotics 10,000 μg/ml
[19] = Table 6, agar containing 50 μg/ml of penicillin G, disc 20 μl, PS-6 240 μg/ml, reference antibiotics 10,000 μg/ml

CC(=O)NCCSC1=C(C(=O)OC(c2ccccc2)(c2ccccc2)c2ccccc2)N2C(=O)C(C(C)C)C2C1 (stereo not drawn) [Antibiotic PS-6 trityl ester]
Solubility in water [1]: Substantially insoluble
Solubility in organic solvents [1]: Substantially insoluble in water and n-hexane; also recorded: Highly soluble in benzene, ethyl acetate, chloroform, methanol, ethanol, acetone, dimethylformamide (DMF) and dimethylsulfoxide (DMSO)
MIC [2]: 20 µg/mL (≈ 36.1 µM)
Antibiotic activity against Gram-negative bacteria of the genera Klebsiella, Proteus [3]: good activity
Antibiotic activity against Gram-negative bacteria of the genus Alcaligenes (Comamonas) [3]: very strong activity
Antibiotic activity against Gram-negative bacteria resistant to β-lactam antibiotics [3]: strong activity
Antibiotic activity against Gram-negative bacteria resistant to β-lactam antibiotics ([3]; listed as trityl ester of antibiotic PS-6): strong antibiotic activity
Antibiotic activity against Gram-positive bacteria [3]: very strong activity
ED50 [4]: 5.5 mg/kg
Therapeutic effect in infected mice [4]: marked therapeutic effect
MIC [5]: 0.33 µg/mL (≈ 0.595 µM)
Stability [6]: more stable than antibiotic PS-6 or PS-7
MIC ([7]; Table 9): 25 µg/mL (≈ 45.1 µM)
MIC [8]: 25 µg/mL (≈ 45.1 µM)
Acute toxicity [9]: no acute toxicity
MIC ([10]; Table 9): 1.34 µg/mL (≈ 2.42 µM)
MIC ([11]; Table 9): 0.33 µg/mL (≈ 0.595 µM)
MIC ([12]; Table 9, ester dissolved in methanol): 0.33 µg/mL (≈ 0.595 µM)
MIC ([13]; Table 9): 12.5 µg/mL (≈ 22.5 µM)

CCC1C(=O)N2C(C(=O)OC(c3ccccc3)(c3ccccc3)c3ccccc3)=C(SC=CNC(C)=O)CC12 (stereo not drawn) [Antibiotic PS-7 trityl ester]
Solubility in water [1]: Substantially insoluble
Solubility in organic solvents [1]: Highly soluble in benzene ethyl acetate, chloroform, methanol, ethanol, acetone, dimethylformamide (DMF) and dimethylsulfoxide (DMSO); also recorded: Substantially insoluble in water and n-hexane
MIC [2]: 10 µg/mL (≈ 18.6 µM)
Antibiotic activity against Gram-negative bacteria of the genera Klebsiella, Proteus [3]: good activity
Antibiotic activity against Gram-negative bacteria of the genus Alcaligenes (Comamonas) [3]: very strong activity
Antibiotic activity against Gram-negative bacteria resistant to β-lactam antibiotics [3]: strong activity
Antibiotic activity against Gram-negative bacteria resistant to β-lactam antibiotics ([3]; listed as trityl ester of antibiotic PS-7): strong antibiotic activity
Antibiotic activity against Gram-positive bacteria [3]: very strong activity
ED50 [4]: 4.5 mg/kg
Therapeutic effect in infected mice [4]: marked therapeutic effect
MIC [5]: 0.16 µg/mL (≈ 0.297 µM)
Stability [6]: more stable than antibiotic PS-6 or PS-7
MIC ([7]; Table 10): 25 µg/mL (≈ 46.4 µM)
MIC [8]: 25 µg/mL (≈ 46.4 µM)
Acute toxicity [9]: no acute toxicity
MIC ([10]; Table 10): 1.34 µg/mL (≈ 2.49 µM)
MIC ([11]; Table 10): 0.16 µg/mL (≈ 0.297 µM)
MIC ([12]; Table 10, ester dissolved in methanol): 0.16 µg/mL (≈ 0.297 µM)
MIC ([13]; Table 10): 6.25 µg/mL (≈ 11.6 µM)

CC1(C)S[C@@H]2[C@H](NC(=O)Cc3ccccc3)C(=O)N2[C@H]1C(=O)O [penicillin G]
Synergistic enhancement of the activity of penicillin G or cephaloridine (β-lactam antibiotics) [14]: no synergistic effect
Synergistic enhancement of the activity of penicillin G or cephaloridine (β-lactam antibiotics) ([14]; listed as Penicillin G): No enhancement of antimicrobial activity
zone of inhibition at 10000 µg/mL ([15]; Proteus vulgaris, P5, 18 h, read-out: Diameter of inhibitory zone, No addition): 15 mm
zone of inhibition at 240 µg/mL ([15]; Proteus vulgaris, P5, 18 h, read-out: Inhibition zone, Control): 15 mm
Inhibition zone, with cephaloridine [15, 18]: 15.0 mm
Inhibition zone, with penicillin G [15, 19]: 15.0 mm
Diameter of inhibitory zone, Cephaloridine-added ([15]; Table 8, comparison disc 20 μl of 10,000 μg/ml, cephaloridine in the agar): 15.0 mm
zone of inhibition at 240 µg/mL ([16]; Serratia marcescens, S18, 18 h, read-out: Inhibition zone, Control): 0 mm
Inhibition zone, with cephaloridine [16, 18]: 0.0 mm
Inhibition zone, with penicillin G [16, 19]: 0.0 mm
zone of inhibition at 240 µg/mL ([17]; Citrobacter freundii, E9, 18 h, read-out: Inhibition zone, Control): 0 mm
Inhibition zone, with cephaloridine [17, 18]: 0.0 mm
Inhibition zone, with penicillin G [17, 19]: 0.0 mm
